Test results as given in patent publication US8541588B2, “Sulfonamide derivatives” (Pfizer Limited, priority 2009, dated 2013).

Target: T1, Nav1.7 (or SCN9A) channel; HEK cells stably transfected with hSCN9A (Homo sapiens, UniProt Q15858)
T1 construct: expressed in transfected cells
Assay: Nav1.7 block, PatchXpress 7000 automated whole-cell voltage clamp, estimated IC50 (EIC50)
Format: cell-based
Details: estimated IC50, PatchXpress platform

[1] = hSCN9A HEK cells, Examples 283-814
[2] = hSCN9A HEK cells, Examples 815-1040
[3] = hSCN9A HEK cells held at V1/2 of inactivation

T1 sequence (Q15858 whole entry): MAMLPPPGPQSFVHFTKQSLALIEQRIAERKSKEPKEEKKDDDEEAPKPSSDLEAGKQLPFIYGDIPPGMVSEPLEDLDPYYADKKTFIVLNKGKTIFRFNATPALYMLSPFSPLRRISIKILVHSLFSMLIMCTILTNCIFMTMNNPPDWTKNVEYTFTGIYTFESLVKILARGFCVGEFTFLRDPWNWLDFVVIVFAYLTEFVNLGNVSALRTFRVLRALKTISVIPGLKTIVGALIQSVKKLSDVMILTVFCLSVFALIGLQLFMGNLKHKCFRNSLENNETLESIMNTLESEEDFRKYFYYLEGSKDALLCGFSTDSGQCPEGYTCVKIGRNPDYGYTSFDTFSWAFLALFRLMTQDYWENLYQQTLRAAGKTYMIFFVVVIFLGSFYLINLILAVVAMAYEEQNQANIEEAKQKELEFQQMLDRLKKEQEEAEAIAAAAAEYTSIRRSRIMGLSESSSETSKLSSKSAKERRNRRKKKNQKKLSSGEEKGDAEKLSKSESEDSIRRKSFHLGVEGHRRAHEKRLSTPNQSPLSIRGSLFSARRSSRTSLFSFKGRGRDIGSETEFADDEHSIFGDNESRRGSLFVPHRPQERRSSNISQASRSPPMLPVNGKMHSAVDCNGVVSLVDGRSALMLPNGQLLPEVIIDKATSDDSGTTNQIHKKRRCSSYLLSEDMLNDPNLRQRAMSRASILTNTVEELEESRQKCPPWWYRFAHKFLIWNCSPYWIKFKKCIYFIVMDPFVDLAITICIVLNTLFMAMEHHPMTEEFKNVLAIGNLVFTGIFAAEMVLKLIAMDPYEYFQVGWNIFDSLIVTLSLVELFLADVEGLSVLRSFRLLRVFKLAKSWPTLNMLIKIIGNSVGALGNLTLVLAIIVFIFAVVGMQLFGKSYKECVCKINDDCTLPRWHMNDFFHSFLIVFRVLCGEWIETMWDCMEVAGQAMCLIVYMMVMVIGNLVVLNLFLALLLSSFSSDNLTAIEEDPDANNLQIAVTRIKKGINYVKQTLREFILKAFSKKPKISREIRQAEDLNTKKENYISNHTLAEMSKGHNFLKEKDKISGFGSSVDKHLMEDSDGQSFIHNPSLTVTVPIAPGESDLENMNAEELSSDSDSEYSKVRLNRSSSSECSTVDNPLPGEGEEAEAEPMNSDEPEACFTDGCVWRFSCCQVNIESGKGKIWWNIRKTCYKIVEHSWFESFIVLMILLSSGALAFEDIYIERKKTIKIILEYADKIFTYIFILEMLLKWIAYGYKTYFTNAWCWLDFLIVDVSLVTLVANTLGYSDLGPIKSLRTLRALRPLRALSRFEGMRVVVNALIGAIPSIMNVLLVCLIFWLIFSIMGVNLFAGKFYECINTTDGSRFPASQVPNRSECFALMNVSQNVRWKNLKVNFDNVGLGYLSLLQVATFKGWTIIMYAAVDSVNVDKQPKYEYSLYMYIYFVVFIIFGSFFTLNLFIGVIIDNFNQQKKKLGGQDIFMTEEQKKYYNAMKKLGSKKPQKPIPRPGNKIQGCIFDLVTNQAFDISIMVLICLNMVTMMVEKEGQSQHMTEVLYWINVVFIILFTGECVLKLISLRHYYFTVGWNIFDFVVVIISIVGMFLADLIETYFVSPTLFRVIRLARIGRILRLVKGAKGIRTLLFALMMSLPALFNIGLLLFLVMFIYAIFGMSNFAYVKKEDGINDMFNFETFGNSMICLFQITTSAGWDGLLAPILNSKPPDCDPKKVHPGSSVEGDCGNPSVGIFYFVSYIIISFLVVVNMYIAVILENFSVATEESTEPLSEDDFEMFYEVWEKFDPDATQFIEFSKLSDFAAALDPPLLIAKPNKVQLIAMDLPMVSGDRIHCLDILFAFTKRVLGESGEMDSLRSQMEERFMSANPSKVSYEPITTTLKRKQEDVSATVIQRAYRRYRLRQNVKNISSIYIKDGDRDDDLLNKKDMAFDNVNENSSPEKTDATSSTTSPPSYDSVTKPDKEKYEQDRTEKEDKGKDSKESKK

| SMILES | IC50 [1] | IC50 [2] | other results |
| --- | --- | --- | --- |
| CC(=O)N1CC(c2cc(Cl)ccc2Oc2ccc(S(=O)(=O)Nc3nccs3)cc2C#N)C1 [Example 640, 4-[2-(1-acetylazetidin-3-yl)-4-chlorophenoxy]-3-cyano-N-1,3-thiazol-2-ylbenzenesulfonamide] | 1 µM |  |  |
| O=S(=O)(Nc1cscn1)c1cc(Cl)c(Oc2ccc(F)cc2-c2ccnn2CCO)cc1F [Example 517, 5-chloro-2-fluoro-4-{4-fluoro-2-[1-(2-hydroxyethyl)-1H-pyrazol-5-yl]phenoxy}-N-1,3-thiazol-4-ylbenzenesulfonamide] | 2.2 µM |  |  |
| Cn1nccc1-c1cc(Cl)ccc1Oc1ccc(S(=O)(=O)Nc2ccc(F)cn2)cc1Cl [Example 745, 3-chloro-4-[4-chloro-2-(1-methyl-1H-pyrazol-5-yl)phenoxy]-N-(5-fluoropyridin-2-yl)benzenesulfonamide] | 0.12 µM |  |  |
| Cn1nc(-c2ccc(Oc3ccc(S(=O)(=O)Nc4nccs4)cc3C#N)cc2)cc1C(F)(F)F [Example 371, 3-cyano-4-{4-[1-methyl-5-(trifluoromethyl)-1H-pyrazol-3-yl]phenoxy}-N-1,3-thiazol-2-ylbenzenesulfonamide] | 1.8 µM |  |  |
| O=S(=O)(Nc1ncns1)c1cc(F)c(Oc2ccc(C(F)(F)F)cc2-c2cnccn2)cc1F [Example 632, 2,5-difluoro-4-[2-pyrazin-2-yl-4-(trifluoromethyl)phenoxy]-N-1,2,4-thiadiazol-5-ylbenzenesulfonamide] | 0.1 µM |  |  |
| N#Cc1ccc(-c2cc(Cl)ccc2Oc2ccc(S(=O)(=O)Nc3ncns3)cc2C#N)nc1 [Example 853, 4-[4-chloro-2-(5-cyanopyridin-2-yl)phenoxy]-3-cyano-N-1,2,4-thiadiazol-5-ylbenzenesulfonamide] |  | 0.74 µM |  |
| N#Cc1cc(S(=O)(=O)Nc2ncns2)ccc1Oc1ccc(F)cc1C1CCOCC1 [Example 842, 3-cyano-4-[4-fluoro-2-(tetrahydro-2H-pyran-4-yl)phenoxy]-N-1,2,4-thiadiazol-5-ylbenzenesulfonamide] |  | 0.096 µM |  |
| Nc1n[nH]cc1-c1cc(Cl)ccc1Oc1cc(F)c(S(=O)(=O)Nc2ccncn2)cc1Cl [Example 1036, 4-[2-(3-amino-1H-pyrazol-4-yl)-4-chlorophenoxy]-5-chloro-2-fluoro-N-pyrimidin-4-ylbenzenesulfonamide] |  | 0.021 µM |  |
| Cn1ncc(F)c1-c1cc(Cl)ccc1Oc1ccc(S(=O)(=O)Nc2nccs2)cc1C#N [Example 196, 4-[4-Chloro-2-(4-fluoro-2-methyl-2H-pyrazol-3-yl)-phenoxy]-3-cyano-N-thiazol-2-yl-benzenesulfonamide] |  |  | IC50 [3]: 0.03 µM |
| N#Cc1cc(S(=O)(=O)Nc2ncns2)ccc1Oc1ccc(F)cc1-c1ccn[nH]1 [Example 499, 3-cyano-4-[4-fluoro-2-(1H-pyrazol-5-yl)phenoxy]-N-1,2,4-thiadiazol-5-ylbenzenesulfonamide] | 0.19 µM |  |  |
| O=S(=O)(Nc1ncns1)c1cc(F)c(Oc2cc(Cl)c(F)cc2-c2ccnnc2)cc1F [Example 937, 4-(5-chloro-4-fluoro-2-pyridazin-4-ylphenoxy)-2,5-difluoro-N-1,2,4-thiadiazol-5-ylbenzenesulfonamide] |  | 0.019 µM |  |
| O=S(=O)(Nc1ncns1)c1cc(F)c(Oc2ccccc2-c2ccccc2)c(F)c1 [Example 264, 4-(biphenyl-2-yloxy)-3,5-difluoro-N-1,2,4-thiadiazol-5-ylbenzenesulfonamide] |  |  | IC50 [3]: 2.38 µM |
| O=S(=O)(Nc1ncns1)c1ccc(Oc2cc(C(F)(F)F)nn2-c2cc(F)ccc2F)c(F)c1 [Example 253, 4-[2-(2,5-difluoro-phenyl)-5-trifluoromethyl-2H-pyrazol-3-yloxy]-3-fluoro-N-1,2,4-thiadiazol-5-yl-benzenesulfonamide] |  |  | IC50 [3]: 0.63 µM |
| Cc1cccc(-c2ccc(OC(F)(F)F)cc2)c1Oc1ccc(S(=O)(=O)Nc2ncns2)cc1C#N [Example 40, 3-cyano-4-{[3-methyl-4′-(trifluoromethoxy)biphenyl-2-yl]oxy}-N-1,2,4-thiadiazol-5-ylbenzenesulfonamide] |  |  | IC50 [3]: 5.74 µM |
| N#Cc1cc(S(=O)(=O)Nc2ncns2)ccc1Oc1ccccc1-c1ccccc1F [Example 50, 3-cyano-4-[(2′-fluorobiphenyl-2-yl)oxy]-N-1,2,4-thiadiazol-5-ylbenzenesulfonamide] |  |  | IC50 [3]: 0.84 µM |
| N#Cc1cc(S(=O)(=O)Nc2cscn2)ccc1Oc1ccc(C(F)(F)F)cc1-c1ccnn1C1CNC1 [Example 969, 4-[2-(1-azetidin-3-yl-1H-pyrazol-5-yl)-4-(trifluoromethyl)phenoxy]-3-cyano-N-1,3-thiazol-4-ylbenzenesulfonamide] |  | 0.0041 µM |  |
| Cc1csc(NS(=O)(=O)c2ccc(Oc3ccccc3-c3ccccc3)c(C#N)c2)n1 [Example 101, 4-(biphenyl-2-yloxy)-3-cyano-N-(4-methyl-1,3-thiazol-2-yl)benzenesulfonamide] |  |  | IC50 [3]: 1.58 µM |

More lines, main results first:

| IC50 [1] | IC50 [2] | SMILES | other results |
| --- | --- | --- | --- |
| 2 µM |  | N#Cc1cc(S(=O)(=O)Nc2nccs2)ccc1Oc1ccc(-c2ncccc2C(F)(F)F)cc1 [Example 457, 3-cyano-N-1,3-thiazol-2-yl-4-{4-[3-(trifluoromethyl)pyridin-2-yl]phenoxy}benzenesulfonamide] |  |
|  | 0.024 µM | N#Cc1cc(S(=O)(=O)Nc2nncs2)ccc1Oc1ccc(Cl)cc1-c1ccnc(N2CCC2)c1 [Example 919, 4-[2-(2-azetidin-1-ylpyridin-4-yl)-4-chlorophenoxy]-3-cyano-N-1,3,4-thiadiazol-2-ylbenzenesulfonamide] |  |
|  | 0.034 µM | Nc1n[nH]cc1-c1cc(Cl)ccc1Oc1cc(F)c(S(=O)(=O)Nc2cccnn2)cc1Cl [Example 1038, 4-[2-(3-amino-1H-pyrazol-4-yl)-4-chlorophenoxy]-5-chloro-2-fluoro-N-pyridazin-3-ylbenzenesulfonamide] |  |
|  | 0.0016 µM | CN(C)c1cc(-c2cc(Cl)ccc2Oc2ccc(S(=O)(=O)Nc3ncns3)cc2C#N)ccn1 [Example 1026, 4-{4-Chloro-2-[2-(dimethylamino)pyridin-4-yl]phenoxy}-3-cyano-N-1,2,4-thiadiazol-5-ylbenzenesulfonamide] |  |
|  | 0.42 µM | N#Cc1cc(S(=O)(=O)Nc2nncs2)ccc1Oc1ccc(Cl)cc1-c1ccnnc1 [Example 832, 4-(4-chloro-2-pyridazin-4-ylphenoxy)-3-cyano-N-1,3,4-thiadiazol-2-ylbenzenesulfonamide] |  |
| 1.9 µM |  | Cc1nsc(NS(=O)(=O)c2ccc(Oc3ccc(Cl)cc3-c3ccnn3C)c(F)c2)n1 [Example 515, 4-[4-chloro-2-(1-methyl-1H-pyrazol-5-yl)phenoxy]-3-fluoro-N-(3-methyl-1,2,4-thiadiazol-5-yl)benzenesulfonamide] |  |
| 1.1 µM |  | Cc1nn(C)cc1-c1ccc(Oc2ccc(S(=O)(=O)Nc3nccs3)cc2C#N)cc1 [Example 389, 3-cyano-4-[4-(1,3-dimethyl-1H-pyrazol-4-yl)phenoxy]-N-1,3-thiazol-2-ylbenzenesulfonamide] |  |
| 2.9 µM |  | O=S(=O)(Nc1cscn1)c1cc(Cl)c(Oc2ccc(F)cc2-c2c[nH]nn2)cc1F [Example 521, 5-chloro-2-fluoro-4-[4-fluoro-2-(1H-1,2,3-triazol-4-yl)phenoxy]-N-1,3-thiazol-4-ylbenzenesulfonamide] |  |
| >1 µM |  | N#Cc1cc(S(=O)(=O)Nc2nccs2)ccc1Oc1ccc(N2CCNC2=O)cc1 [Example 486, 3-cyano-4-[4-(2-oxoimidazolidin-1-yl)phenoxy]-N-1,3-thiazol-2-ylbenzenesulfonamide] |  |
